From US5342851A, “Substituted thiazole derivatives useful as platelet aggregation inhibitors” (McNeil-PPC, Inc., priority 1992, dated 1994)
Counter-ions that a name gives are not always drawn. Like-named read-outs stand apart in the source and are kept apart here.

Tests used:
[1] = test system: activated platelets (125I-fibrinogen binding); test: Fibrinogen Binding (125I-fibrinogen binding to activated platelets); settings: read-out: Binding (IC50, concentration of compound which provides 50% fibrinogen binding); thrombin-stimulated platelets; 0.15 μM 125I-fibrinogen
Method: The compounds of the invention as identified above are evaluated for platelet aggregation inhibition activity as indicated by the percentage of nonaggregated platelets which are available for binding in accordance with the following procedure.
Briefly, 40 mL of PRP (obtained from Biological Specialty Corp., Lansdale, Pa.) are centrifuged at 120×g to remove contaminating red cells. Aspirin (50 μM) is added and the PRP is incubated at 37° C. for 20 minutes. […] Platelets are concentrated by a 300×g centrifugation (10 minutes) and the pellet is resuspended in 4 mL. of Tyrode's buffer. The platelet suspension (4 mL) is gel-filtered through a Sepharose-2B column (50 mL bed volume). […] The binding reaction is performed in polystyrene tubes (final volume […]). Reagents are added in the following order: 80 mL of Tyrode's buffer, 50 mL of CaCl2 (final concentration (f.c.) […]) and 50 mL of thrombin (f.c. 0.1 unit/mL). The platelet suspension is then added and the mixture is allowed to incubate at room temperature for 2 minutes. Hirudin (50 mL, f.c. 0.5 unit/mL) is immediately added to prevent the catalytic activity of thrombin. […] The mixture is incubated for 10 minutes at room temperature. To terminate the binding reaction the platelets are sedimented (10,000×g for 3 minutes) through silicone oil (3:1 hi-phenol 550/methyl silicone 200, W. F. Nye, Inc., New Bedford, Mass.), in an Eppendorf centrifuge.
The amount of platelet radioactivity measured in the presence of nonlabeled fibrinogen (4 mg/mL) is considered the nonspecific binding. All samples are repeated in triplicate.
Positive percentages of fibrinogen binding indicates higher activity for inhibiting platelet aggregation since only non-aggregated or free platelets are available for fibrinogen binding.

[2] = test system: platelets (gel-filtered platelet rich plasma); test: Platelet Aggregation Inhibition Activity (agonist thrombin or ADP, light transmission); format: cell-based; settings: for inhibition at 20 µM: Homo sapiens, thrombin or ADP agonist, read-out: Aggregation (percentage increase in light transmission)
Method: The percentage of platelet aggregation is calculated as an increase in light transmission of drug treated platelet concentrate versus control treated platelet concentrate. Blood is obtained from drug free, normal donors into tubes containing 0.13M sodium citrate (two sources are routinely used: platelet concentrate obtained from Biological Specialty Corp., Lansdale, Pa. or whole blood obtained from donors). Platelet rich plasma (PRP) is collected by centrifugation of the concentrate or whole blood at 130×g for 15 minutes at 25° C. The PRP (5 mL) is gel filtered through Sepharose 2B (bed volume 50 mL), and the platelet count is adjusted to 2×10^7 platelets per sample. The following constituents are added to a siliconized cuvette: 250 μL of the concentrated platelet filtrate, 100 μL of Tyrode's buffer (0.14M NaCl, 0.0027M KCl, 0.012M NaHCO3, 0.76 mM Na2 HPO4, 0.0055M glucose and 2 mg/mL BSA pH 7.4), 50 μL of 2 mM calcium and test drug (50 mL).
Aggregation is monitored in a dual channel Chrono-log Aggregometer for three minutes following the addition of agonist (thrombin 50 μL of 1 unit/mL, or ADP 50 μL of 100 μM). The final assay volume is 500 μL. The reaction takes place at 37° C. The peak aggregation response is calculated as the increase in light transmission units over a three minute period. The difference of the increase in light transmission between control and drug treated platelets is then expressed as a percent of the nondrug treated controls. […] A percentage increase in light transmission indicates platelet aggregation inhibition activity for the tested compound.

[3] = read-out: Aggregation (IC50, concentration at which the increase in light transmission equals 50%), thrombin or ADP agonist, 37° C., three minutes

SMILES	IC50 [1]	IC50 [2, 3]	IC50 ([2]; read-out: Aggregation (IC50, concentration at which the increase in light transmission equals 50%))	inhibition at 20 µM [2]
Cc1ccc(-c2csc(-n3ncc(C(=O)NCCCN)c3C(F)(F)F)n2)cc1 [Example 123]	17 µM	17 µM		
NCCCNC(=O)c1cnn(-c2nc(-c3cccc(C(F)(F)F)c3)c(Br)s2)c1C(F)(F)F [Example 124]	5.5 µM	3.2 µM		
N=C(N)NCCCNC(=O)c1cnn(-c2nc(-c3cccc(C(F)(F)F)c3)cs2)c1C(F)(F)F [Example 128, 2-[4-(3-Guanidinopropylcarbamoyl)-5-(trifluoromethyl)-pyrazol-1-yl]-4-(3-trifluoromethylphenyl)thiazole Nitrate]	17.5 µM		118 µM	
CCN(CC)CCCNC(=O)c1ccc(-c2csc(-c3ccc(C)cc3)n2)cc1 [Example 151]	19 µM	16.7 µM		
CN(C)CCCNC(=O)c1ccc(-c2csc(-c3ccc(C(C)(C)C)cc3)n2)cc1 [Example 156]	12 µM	14.2 µM		
Cc1ccc(-c2nc(-c3ccc(C(=O)NCCCN4CCCC4=O)cc3)cs2)cc1 [Example 170]	10.8 µM			90%
NCCNC(=O)c1ccc(-c2csc(-c3ccc(C(F)(F)F)cc3)n2)cc1 [Example 196]	6 µM	3.7 µM		
O=C(NCCCBr)c1ccc(-c2csc(-c3ccc(C(F)(F)F)cc3)n2)cc1 [Example 209]	7.8 µM	5.5 µM		
CCCNCCCNC(=O)c1ccc(-c2csc(-c3ccc(C(F)(F)F)cc3)n2)cc1 [Example 221]	5.8 µM			85%
CCCCNCCCNC(=O)c1ccc(-c2csc(-c3ccc(Cl)cc3)n2)cc1 [Example 224]	3.3 µM	6.1 µM		

More lines, in order of falling IC50 [1], values ahead:

IC50 [1]	IC50 [2, 3]	SMILES	IC50 ([2]; read-out: Aggregation (IC50, concentration at which the increase in light transmission equals 50%))	inhibition at 20 µM [2]
17 µM	21 µM	FC(F)(F)c1cccc(-c2csc(-n3ncc(COCCCN4CCCCC4)c3C(F)(F)F)n2)c1 [Example 136, 2-[4-[3-(N-Piperidino)propoxymethyl]-5-(trifluoromethyl)pyrazol-1-yl]-4-(3-trifluoromethylphenyl)thiazole Oxalate]		
10 µM	7.2 µM	Cc1ccc(-c2nc(-c3ccc(C(=O)NCCCN(C)C)cc3)cs2)cc1 [Example 154]		
9.2 µM	10 µM	O=C(NCCCNC1CCCCC1)c1ccc(-c2csc(-c3ccc(Cl)cc3)n2)cc1 [Example 213]		
5.2 µM	8.7 µM	O=C(NCCN1CCCCC1)c1ccc(-c2csc(-c3ccccc3)n2)cc1 [Example 158]		
4.4 µM	5 µM	CCN(CC)CCCNC(=O)c1ccc(-c2csc(-c3ccc(C(F)(F)F)cc3)n2)cc1 [Example 150]		
4.3 µM	15.3 µM	CCN(CC)CCCNC(=O)c1ccc(-c2csc(-c3ccc(C(C)(C)C)cc3)n2)cc1 [Example 153]		
4.3 µM	3.8 µM	CCCCNCCCNC(=O)c1ccc(-c2csc(-c3ccc(OC)cc3)n2)cc1 [Example 226]		
3.4 µM	5 µM	O=C(NCCCN1CCCCC1)c1ccc(-c2csc(-c3ccc(Cl)cc3)n2)cc1 [Example 211]		
2.7 µM	5.8 µM	CCN(CC)CCCCNC(=O)c1ccc(-c2csc(-c3ccc(Cl)cc3)n2)cc1 [Example 179]		
2.5 µM	4 µM	CCN(CC)CCNC(=O)c1ccc(-c2csc(-c3ccc(C)cc3)n2)cc1 [Example 176]		
1.8 µM		CN(C)CCNC(=O)c1ccc(-c2csc(-c3ccc(C(F)(F)F)cc3)n2)cc1 [Example 174]		85%
